Results as given in article PMC10060427, “A glucose tolerant β-glucosidase from a newly isolated Neofusicoccum parvum strain F7: production, purification, and characterization” (Scientific Reports, 2023).

Experiments:
Assay type in all cases: biochemical, Neofusicoccum parvum
[1] = system: T1, Bgl3; assay: 4-nitrophenol release at […] nm, Lineweaver-Burk plot; conditions: standard assay described as 50 mM sodium acetate pH 5.0, 55 °C; 4-NPG 0-13.28 mM
T1 construct: native extracellular enzyme purified from culture supernatant (ammonium sulphate, HiTrap Q FF, native gel extraction); about 65 kDa; GH3 only inferred by authors

[2] = system: T2, Bgl2; assay: 4-NPG hydrolysis, absorbance at […] nm, glucose […]; conditions: product inhibition; substrate 4-NPG; standard assay described as 50 mM sodium acetate pH 5.0, 55 °C
T2 construct: native extracellular enzyme purified from culture supernatant, extracted from native gel; 230 kDa on native PAGE

[3] = system: T3, Bgl1; assay: 4-NPG hydrolysis, absorbance at […] nm, glucose […]; conditions: product inhibition; substrate 4-NPG; standard assay described as 50 mM sodium acetate pH 5.0, 55 °C
T3 construct: native extracellular enzyme purified from culture supernatant, extracted from native gel; 240 kDa on native PAGE

Row | SMILES | Km [1] [µM] | IC50 [2] [mM] | IC50 [3] [mM]
1 | O=[N+]([O-])c1ccc(O[C@@H]2O[C@H](CO)[C@@H](O)[C@H](O)[C@H]2O)cc1 [4-nitrophenyl-β-D-glucopyranoside] | 1180 | – | –
2 | OC[C@H]1OC(O)[C@H](O)[C@@H](O)[C@@H]1O (stereo partly drawn) [glucose] | – | 22.6 | 2.6
